Test [1] relates to Orobanche cumana Wallr. seeds (race 'F'). Description: Orobanche cumana seed germination test on glass fiber filter paper. The class given is in vivo. Conditions: preconditioned seeds, seed lot IN153, 10 days at 20° C. in the dark, mean, N = 5 × 100 seeds. The method, then: The effect of compounds of Formula (I) on germination of Orobanche cumana Wallr. seeds was evaluated on glass fiber filter paper (GFFP) in petri dishes. Seeds were preconditioned at moisture and suitable temperature to become responsive to the specific chemical germination stimulants.
Test compounds were dissolved in DMSO (10 000 mg l^−1) and stored at room temperature in a desiccators with desiccants. The stock solutions were dissolved with deionised water to the appropriate final test concentration.
Seeds of O. cumana race ‘F’ were collected from sunflower fields in Manzanilla (Seville, Spain) in 2008 (seed lot IN153) and stored at room temperature. To separate seeds from heavy organic debris, a modified sucrose floatation technique as described by Hartman & Tanimonure (Plant Disease (1991), 75, p. 494) was applied. Seeds were filled into a separation funnel and stirred in water. When seeds floated to the surface, the water fraction containing heavy debris was discarded. Seeds were re-suspended in 2.5M sucrose solution (specific gravity of 1.20) and heavy debris was allowed to settle down for 60 min. After removing debris, seeds were disinfected in 1% sodium hypochlorite solution and 0.025% (v/v) Tween 20 for 2 min. The seeds were decanted onto two layers of cheesecloth, rinsed with sterile deionised water and re-suspended in sterile deionised water. Two ml of the seed suspension containing approximately 150-400 seeds were spread evenly on two layers of sterile glass fiber filter paper disc ([…]) in Petri dishes (Ø9 cm). After wetting the discs with 3 ml sterile deionised water, petri dishes were sealed with parafilm. Seeds were incubated for 10 days at 20° C. in the dark for seed conditioning. The upper disc with conditioned seeds was briefly dried, transferred to a petri dish lined with a dry GFFP disc, and wetted with 6 ml of the appropriate test solution. The compounds of Formula (I) were tested at concentrations of 0.001, 0.01, and 0.1 mg l^−1. The strigolactone analogue GR24 (commercially available as a mixture of isomers) was included as positive control and 0.001% DMSO as negative control. All treatments were tested in five replicates. Seeds were re-incubated at 20° C. in the dark and examined for germination 10 days later. The radicles of germinated seeds were stained for 5 min with blue ink (MIGROS, Switzerland) in 5% acetic acid according to Long et al. (Seed Science Research (2008), 18, p. 125). After staining, seeds were scanned using a flatbed scanner with an optical resolution of 1200 dpi (PULSTEK, OpticPro ST28) or photographed using a camera stand mounted with a digital SLR camera (Canon EOS 5D). Germination of 100 seeds per replicate was evaluated on digital images. Seeds were considered germinated when the radicle protruded from the seed coat.

The test system of test [2] is Brassica oleracea cv Botrytis (temperate cauliflower Spacestar) seeds. The test can be described thus: Cauliflower paper germination test under suboptimal conditions. Conditions: 25 μM, 10° C. and in the light. Type of test: in vivo. The method, then: The effect of compounds of Formula (I) on the germination of Brassica oleracea cv Botrytis or common cauliflower was tested on two types of cauliflowers: temperate types and tropical types. These two types were chosen because they display different sensitivities to the light conditions and temperature during germination. Germination of a sensitive temperate type is inhibited by light at 10° C. while for the tropical types germination at 20° is stimulated by the presence of light. […] The temperate seed batches tested are part of commercially produced seed batches of various varieties which are known to be sensitive to light at 10° C. These seeds were harvested and cleaned according standard commercial procedures. Ready seed batches were used (Ready indicates the processing level of these seeds: they have been cleaned and sized but received no other treatments). The tropical seed batches tested are part of seed batches produced as basic seed (for maintenance of the parental line) and were processed accordingly. Germination was assessed using the standard paper germination test for Brassica: Fifty seeds were placed on blue germination paper, which was moistened with the appropriate solutions, in closed oblong germination boxes. Each condition was tested in duplo. Germination boxes were placed in controlled germination cabinets with the appropriate temperature and light conditions. Germination of seeds was counted at regular intervals. Seeds were considered to be germinated when the radical had protruded the testa and endosperm (radical size approximately 1 mm). Test compounds were dissolved in DMSO at a concentration of 50 mM and stored at −20° C. The strigolactone analogue GR24 (commercially available as a racemic mixture of 2 diastereoisomers, referred to as “synthetic strigolactone GR-24” and first prepared by Johnson A. W. & all, Journal of the Chemical Society, Perkin Transactions 1, 1981, page 1734-1743) was included as positive control. Germination solutions were prepared by diluting the stock solutions with demineralized water till 25 μM. As control solutions demineralized water and a 0.05% v/v DMSO solution were used.

Where [3] appears, read: Spacestar seed batch 11B313 (cold-sensitive).
[4] abbreviates: Spacestar seed batch 11B314 (not cold sensitive).

These results are taken from patent publication US20180134726A1, “PLANT GROWTH REGULATING COMPOUNDS” (Syngenta Participations AG, priority 2012, published 2018).

With `CC1=C[C@H](O/C=C2/C(=O)N[C@@H]3c4ccsc4C[C@H]23)OC1=O` (racemic) [Compound A3, (3aR*,8bS*)-(3E)-3-[(2R)(4-methyl-5-oxo-2H-furan-2-yl)oxymethylene]-3,3a,4,8b-tetrahydro-1H-thioindeno[1,2-b]pyrrol-2-one], the “Germination (%)” value in test [1] (0.001 mg l^−1) worked out at 87.8%; in test [1] (0.01 mg l^−1), 85.6%; in test [1] (0.1 mg l^−1), 84.6%. Besides, the “Gmax (total germination as percentage of sown seeds)” value in test [2] (setting [3]) amounted to 75.0%; in test [2] (setting [4]), 94.0%. For the same compound, the “stimulation (extra germination compared to the DMSO treatment, as percentage of the germination in the DMSO treatment)” value was found to be 38.9% in test [2] (setting [3]) and 9.3% in test [2] (setting [4]).
With `CC1=C[C@H](O/C=C2/C(=O)O[C@@H]3c4ccccc4C[C@H]23)OC1=O` [GR24], the results for the “Germination (%)” value in test [1] (0.001 mg l^−1), in test [1] (0.01 mg l^−1) and in test [1] (0.1 mg l^−1) were 67%, 65% and 78.4%, respectively. Further, the results for the “Gmax (total germination as percentage of sown seeds)” value in test [2] (setting [3]) and in test [2] (setting [4]) were 71.5% and 93.5%, respectively. Further, the “stimulation (extra germination compared to the DMSO treatment, as percentage of the germination in the DMSO treatment)” value is 19.2% in test [2] (setting [3]) and 3.3% in test [2] (setting [4]).
